Results: PubChem BioAssay (NCI)
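Protocol summary: plate cells (96-well), add compound at 5 concentrations, incubate 48 h, interpolate endpoints linearly. Abbreviation: GI50, concentration required for 50% inhibition of growth. TGI denotes the concentration required for complete inhibition of growth.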

Assays:
Experiment in all cases: DTP human tumour cell line panel, 48 h
HOP-92 NSCLC = tested on: HOP-92 NSCLC
HCT-116 colon = tested on: HCT-116 colon
SF-539 CNS = tested on: SF-539 CNS
SNB-19 CNS = tested on: SNB-19 CNS
NCI-H23 lung = tested on: NCI-H23 lung
K-562 leukemia = tested on: K-562 leukemia
NCI-H522 lung = tested on: NCI-H522 lung
SK-MEL-28 melanoma = tested on: SK-MEL-28 melanoma
T-47D breast = tested on: T-47D breast
BT-549 breast = tested on: BT-549 breast

Row | SMILES | TGI (HOP-92 NSCLC) [µM] | TGI (HCT-116 colon) [µM] | TGI (SF-539 CNS) [µM] | TGI (SNB-19 CNS) [µM] | TGI (NCI-H23 lung) [µM] | TGI (K-562 leukemia) [µM] | TGI (NCI-H522 lung) [µM] | TGI (SK-MEL-28 melanoma) [µM] | TGI (T-47D breast) [µM] | TGI (BT-549 breast) [µM] | GI50 (HCT-116 colon) [µM] | GI50 (SF-539 CNS) [µM] | GI50 (SNB-19 CNS) [µM] | GI50 (NCI-H23 lung) [µM] | GI50 (T-47D breast) [µM] | GI50 (K-562 leukemia) [µM] | GI50 (BT-549 breast) [µM] | GI50 (NCI-H522 lung) [µM] | GI50 (SK-MEL-28 melanoma) [µM]
1 | Cc1c[n+]2c3ccccc3c3ccccc3c2s1 | 47.4 | > 70.1 | 16.6 | 15.6 | 3.9 | 44.5 | 15.7 | 18 |  |  |  |  |  |  |  |  |  |  | 
2 | CCc1c2c(cc3c1CC1(C3)Cc3cc4c(c(C(=O)OC)c3C1)CCCC4)CCCC2 (configuration not stated) | > 100 | 65.1 | > 100 |  | > 100 | > 100 | > 100 |  | > 100 |  |  |  |  |  |  |  |  |  | 
3 | COc1cc(C2c3cc4c(cc3[C@@H](Nc3cccc(CO)c3)C3COC(=O)[C@H]23)OCO4)cc(OC)c1O (some centres not stated) | 13.3 | 11.6 | 1.99 | 15.7 | 2.77 | 5.87 | 3.52 | 22.7 |  |  |  |  |  |  |  |  |  |  | 
4 | O=P1(c2ccccc2)c2ccccc2-c2ccccc21 | > 100 | > 100 | > 100 | > 100 | > 100 | > 100 | > 100 | > 100 |  | > 100 |  |  |  |  |  |  |  |  | 
5 | C=CC(O)(CBr)CCC(Br)C(=C)C (configuration not stated) |  | > 10 | > 10 | > 10 | > 10 | > 10 | > 10 | > 10 | > 10 | > 10 |  |  |  |  |  |  |  |  | 
6 | CSC1NC(c2ccccc2)=C(C#N)C(=O)N1C1OCC(OC(C)=O)C(OC(C)=O)C1OC(C)=O (configuration not stated) | > 100 | > 100 | > 100 | > 100 | > 100 | > 100 | > 100 | > 100 |  | > 100 |  |  |  |  |  |  |  |  | 
7 | COc1ccc2c3c(Nc4cccc(/C(C)=N\O)c4)[nH]c4ccccc4c-3c(N=O)c2c1 |  | 34.2 | > 100 | > 100 | 27.1 | > 100 | > 100 | 42.7 | > 100 | > 100 | 14.6 | > 100 | 43.7 | 0.752 | 16.9 | 31.6 | 47 | 46.2 | 12.7
8 | CC(=O)Nc1ccc2nc(-c3ccccn3)c(-c3ccccn3)nc2c1 | > 100 |  | > 100 | > 100 |  | > 100 | > 100 | > 100 |  | > 100 |  |  |  |  |  |  |  |  | 
9 | COc1ccc(C2=NN(c3ccccc3)C[N+](c3ccc(C)cc3)=N2)cc1 |  | > 100 |  | > 100 | > 100 | 53.9 | 26.5 | > 100 |  |  |  |  |  |  |  |  |  |  | 
10 | COc1ccc(/C=C2/CSCC3=C2NC(=S)NC3c2ccc(OC)c(OC)c2OC)c(OC)c1OC (configuration not stated) |  | 60 | 49.5 | 51.5 | 43 | > 100 | 97.5 | 81.9 | > 100 |  |  |  |  |  |  |  |  |  | 
11 | COC1CCON1C(=O)c1ccccc1 (configuration not stated) |  | > 10 | > 10 | > 10 | > 10 | > 10 | > 10 | > 10 | > 10 | > 10 |  |  |  |  |  |  |  |  | 
12 | S=C(NCCc1ccccn1)N/N=C/c1ccccn1 |  | < 0.01 | 3.59 | > 100 |  |  | 1.57 | > 100 | > 100 |  |  |  |  |  |  |  |  |  | 
13 | Cc1ccc(C2(c3ccc(Cl)cc3)c3ccccc3C3=NCCN32)cc1 (configuration not stated) | 18.1 | 10.1 |  | 28.2 | 32 | > 100 |  | 35.9 | 39.2 | 25.9 |  |  |  |  |  |  |  |  | 
14 | CSCC[C@@H]1C(=O)N(C)[C@H](C(C)(C)C)N1C(=O)c1ccccc1 | > 100 | > 100 | > 100 | > 100 | > 100 | > 100 | > 100 | > 100 |  |  |  |  |  |  |  |  |  |  | 
15 | CC(C)C(=O)N1Cc2cc(Cl)cc(Cl)c2OC(=O)c2ccccc21 | 62.7 | > 100 | 35.4 | > 100 | > 100 | > 100 | 40.9 | > 100 |  |  |  |  |  |  |  |  |  |  | 
16 | c1cc(-c2ccc(-c3ccc(-c4ccc(-c5ccncc5)o4)cc3)o2)ccn1 | 83.7 | 29.6 |  | 39.7 | 39.1 | 39 | 31.7 | 44.6 | 40.9 | 30.7 |  |  |  |  |  |  |  |  | 
17 | CC1CN=C(NS(=O)(=O)c2cc(C(=O)Nc3ccc(Cl)cc3)c(Cl)cc2S)NN1 (configuration not stated) |  | > 100 | 81.8 | > 100 | > 100 | > 100 | 64.1 | 83.9 |  | > 100 |  |  |  |  |  |  |  |  | 
18 | CCOC(=O)CC(c1ccccc1)C(C)(C(=O)OCC)C(=O)OCC (configuration not stated) |  | > 100 | > 100 | > 100 | > 100 | > 100 | > 100 | > 100 | > 100 | > 100 |  |  |  |  |  |  |  |  | 
19 | O=C(Nc1ccc(Cl)cc1C(F)(F)F)C(=O)C1CCCS1(=O)=O (configuration not stated) | > 10 | > 100 | > 100 | > 100 | > 100 | > 100 |  | > 100 |  |  |  |  |  |  |  |  |  |  | 
20 | N#CC(N=Nc1ccccc1C(=O)O)C(N)=O (configuration not stated) |  | > 100 |  | > 100 | > 100 | > 100 | > 100 | > 100 | > 100 | > 100 |  |  |  |  |  |  |  |  | 
21 | CC12C3C4C1C1C2C3C41CO (configuration not stated) | > 100 | > 100 | > 100 | > 100 |  | > 100 |  | > 100 |  |  |  |  |  |  |  |  |  |  | 
22 | COC(=O)c1cc(C(=O)OC)c(CC(=O)C(=O)NC2C3CC4CC(C3)CC2C4)nc1CC(=O)C(=O)NC1C2CC3CC(C2)CC1C3 (configuration not stated) | > 100 | > 100 | > 100 | > 100 | > 100 | > 100 | > 100 | > 100 |  |  |  |  |  |  |  |  |  |  | 
23 | O=C(CN(C(=O)OC12CC3CC(CC(C3)C1)C2)C(=O)OC12CC3CC(CC(C3)C1)C2)Oc1ccc([N+](=O)[O-])cc1 | > 100 | > 100 | > 100 | > 100 | > 100 | > 100 | > 100 | > 100 |  | > 100 |  |  |  |  |  |  |  |  | 
